The numbers were not newly measured in patent publication US20180169002A1, “Skin Rejuvenation and Defense Systems and Methods” (Maple Mountain Group, Inc., priority 2015, published 2018), which cites them from elsewhere.

The conditions of this data set: compared with glycerin.

Take `NC(=O)NCCO` [Hydroxyethyl Urea, Hydroxyethyl urea]: the moisturization efficacy entry is listed as “comparable to the leading benchmark”.
